Measurements as given in the NIST ThermoML archive (doi:10.1016/j.tca.2008.07.001).
± gives the expanded uncertainty stated by the source.

Assays:
[1] = 298.15 K; 101.33 kPa; Liquid; Pycnometric method
[2] = refractive index (Na D-line) (dimensionless); settings: 298.15 K; 101.33 kPa; Liquid; Standard Abbe refractometry

`CN1CCN(C)C1=O` [1,3-dimethyl-2-imidazolidinone] showed a mass density [1] of 1052.25 ± 1.1 kg/m3 and a refractive index [2] of 1.4712 ± 0.0008.
